The values below come from patent US10005739B2, “Quinazolinone and isoquinolinone derivative” (CHUGAI SEIYAKU KABUSHIKI KAISHA, priority 2013, dated 2018).

This test deals with DDR1 (Homo sapiens (Human), UniProt Q08345). Briefly: Measurement of DDR1 enzyme inhibitory activity (phosphorylation of biotinylated peptide, time-resolved fluorescence). In kind it is biochemical. The settings on record: read-out: DDR1 enzyme inhibition assay IC50. On the procedure:
1. Measurement of DDR1 Enzyme Inhibitory Activity
The DDR1 enzyme inhibitory activity was determined with human DDR1 enzyme prepared using the baculovirus expression system, based on the inhibitory activity of phosphorylation of a biotinylated peptide ([…]) by the enzyme. The phosphorylated biotinylated peptide was detected using time-resolved fluorescence, with an anti-phosphorylated tyrosine antibody conjugated with europium cryptate and streptavidin conjugated with XL665 which is a derivative of allophycocyanin.

[1] abbreviates: human DDR1 enzyme, biotinylated peptide phosphorylation.

Read-outs that look alike come from different tables or passages of the source.

Chain of DDR1 (Q08345 19-913): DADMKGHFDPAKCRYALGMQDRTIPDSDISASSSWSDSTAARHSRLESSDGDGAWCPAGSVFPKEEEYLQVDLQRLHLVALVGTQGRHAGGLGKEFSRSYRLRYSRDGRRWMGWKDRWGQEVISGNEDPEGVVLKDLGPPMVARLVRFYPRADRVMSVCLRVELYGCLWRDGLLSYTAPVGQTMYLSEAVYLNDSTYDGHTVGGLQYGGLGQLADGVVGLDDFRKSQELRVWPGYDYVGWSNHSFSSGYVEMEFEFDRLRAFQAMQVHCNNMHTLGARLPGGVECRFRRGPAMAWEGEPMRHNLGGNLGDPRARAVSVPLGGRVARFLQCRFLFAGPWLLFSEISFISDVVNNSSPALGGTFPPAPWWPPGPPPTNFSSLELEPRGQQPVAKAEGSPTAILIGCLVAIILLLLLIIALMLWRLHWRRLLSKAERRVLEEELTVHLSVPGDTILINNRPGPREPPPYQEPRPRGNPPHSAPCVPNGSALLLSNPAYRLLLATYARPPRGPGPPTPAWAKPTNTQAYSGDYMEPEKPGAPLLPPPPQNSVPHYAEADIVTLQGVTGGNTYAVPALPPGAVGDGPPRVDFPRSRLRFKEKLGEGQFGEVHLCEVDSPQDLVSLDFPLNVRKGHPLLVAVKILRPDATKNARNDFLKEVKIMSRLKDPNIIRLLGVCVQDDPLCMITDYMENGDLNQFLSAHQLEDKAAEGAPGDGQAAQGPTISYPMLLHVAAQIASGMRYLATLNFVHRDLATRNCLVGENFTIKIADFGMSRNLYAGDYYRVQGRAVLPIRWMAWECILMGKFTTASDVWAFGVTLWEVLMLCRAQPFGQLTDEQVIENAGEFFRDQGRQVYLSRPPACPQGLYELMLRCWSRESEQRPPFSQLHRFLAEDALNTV

`CCS(=O)(=O)c1ccc(Cl)cc1Nn1cnc2cc3c(cc2c1=O)OCO3` [Compound A-41, 7-(5-Chloro-2-ethylsulfonylanilino)-[1,3]dioxolo[4,5-g]quinazolin-8-one]: the IC50 under setting [1] amounted to 1950 nM. Consider `CCSc1ccc(Cl)cc1Nn1cnc2cc(F)c(F)cc2c1=O` [Compound A-30, 3-(5-Chloro-2-ethylsulfanylanilino)-6,7-difluoroquinazolin-4-one], for which the IC50 under setting [1] was determined as 100 nM. For `CCS(=O)(=O)c1ccc(Cl)cc1Nn1cnc2cc(F)c(F)cc2c1=O` [Compound A-31, 3-(5-Chloro-2-ethylsulfonylanilino)-6,7-difluoroquinazolin-4-one], the IC50 under setting [1] worked out at 380 nM. As to `CSc1ccc(Cl)cc1Nn1cnc2c(Br)cc(C)cc2c1=O` [Compound B-1, 8-Bromo-3-(5-chloro-2-methylsulfanylanilino)-6-methylquinazolin-4-one], under setting [1], the IC50 amounted to 250 nM. `CCS(=O)(=O)c1ccc(Cl)cc1Nn1cnc2cnc(OC)cc2c1=O` [Compound A-22, 3-(5-Chloro-2-ethylsulfonylanilino)-6-methoxypyrido[3,4-d]pyrimidin-4-one]: the IC50 under setting [1] was found to be 1930 nM. Still for that read-out and setting: in the case of `CCS(=O)(=O)c1ccc(Cl)cc1Nn1cnc2c(-c3ccc(F)cc3)cc(C)cc2c1=O` [Compound A-4, 3-(5-Chloro-2-ethylsulfonylanilino)-8-(4-fluorophenyl)-6-methylquinazolin-4-one] it was 1350 nM; in that of `CCSc1ccc(Cl)cc1Nn1cnc2ccc(OC(F)(F)F)cc2c1=O` [Compound A-44, 3-(5-Chloro-2-ethylsulfanylanilino)-6-(trifluoromethoxy)quinazolin-4-one], 290 nM. For `CCS(=O)(=O)c1ccc(Cl)cc1Nn1cnc2ccc(C)cc2c1=O` [Compound A-51, 3-(5-Chloro-2-ethylsulfonylanilino)-6-methylquinazolin-4-one], under setting [1], the IC50 stood at 110 nM. As for `CCSc1ccc(C#N)cc1Nn1cnc2c(Br)cc(OC(F)(F)F)cc2c1=O` [Compound C-13], the IC50 under setting [1] was 110 nM. Consider `CCSc1ccc(Cl)cc1Nn1cnc2cnc(F)cc2c1=O` [Compound A-19, 3-(5-Chloro-2-ethylsulfanylanilino)-6-fluoropyrido[3,4-d]pyrimidin-4-one], for which the IC50 under setting [1] was determined as 510 nM.

Consider `CCS(=O)(=O)c1ccc(C#N)cc1Nn1cnc2cc(C)c(Br)cc2c1=O` [Compound C-6, 3-[(6-Bromo-7-methyl-4-oxoquinazolin-3-yl)amino]-4-ethylsulfonylbenzonitrile], for which the IC50 under setting [1] was 250 nM. Same read-out and setting: the same measure for `CCSc1cc(Cl)c(C#N)cc1Nn1cnc2ccc(C(F)(F)F)cc2c1=O` [Compound C-42, 2-Chloro-4-ethylsulfanyl-5-[[4-oxo-6-(trifluoromethyl)quinazolin-3-yl]amino]benzonitrile]: 450 nM; for `CC#Cc1ccc2ncn(Nc3cc(Cl)ccc3S(=O)(=O)CC)c(=O)c2c1` [Compound A-65, 3-(5-Chloro-2-ethylsulfonylanilino)-6-prop-1-ynylquinazolin-4-one]: 3110 nM; for `CCS(=O)(=O)c1c(Cl)cc(Cl)cc1Nn1cnc2ccc(C(F)(F)F)cc2c1=O` [Compound C-39, 3-(3,5-Dichloro-2-ethylsulfonylanilino)-6-(trifluoromethyl)quinazolin-4-one]: 140 nM. The same measure, in the same setting: in the case of `CCSc1c(Cl)cc(Cl)cc1Nn1cnc2ccc(C(F)(F)F)cc2c1=O` [Compound C-38, 3-(3,5-Dichloro-2-ethylsulfanylanilino)-6-(trifluoromethyl)quinazolin-4-one] it was 280 nM.

In the case of `CCS(=O)(=O)c1ccc(Cl)cc1Cn1cnc2cc(CN3CC[C@@H](N)C3)c(Br)cc2c1=O` [Compound J-7, 7-[[(3R)-3-aminopyrrolidin-1-yl]methyl]-6-bromo-3-[(5-chloro-2-ethylsulfonylphenyl)methyl]quinazolin-4-one], the IC50 amounted to 170 nM. On to `CCS(=O)(=O)c1ccc(Cl)cc1Nn1cnc2ccc(C(C)C)cc2c1=O` [Compound A-63, 3-(5-Chloro-2-ethylsulfonylanilino)-6-propan-2-ylquinazolin-4-one], for which the IC50 under setting [1] was found to be 200 nM. Take `CCSc1ccc(C#N)cc1Nn1cnc2ccc(C(F)(F)F)cc2c1=O` [Compound C-9, 4-Ethylsulfanyl-3-[[4-oxo-6-(trifluoromethyl)quinazolin-3-yl]amino]benzonitrile]: under setting [1], the half-inhibitory concentration (IC50) turned out to be 99 nM. On to `CCSc1ccc(Cl)cc1Cn1cnc2c(Br)cc(C)cc2c1=O` [Compound E-1, 8-Bromo-3-[(5-chloro-2-ethylsulfanylphenyl)methyl]-6-methylquinazolin-4-one], for which the IC50 under setting [1] came to 640 nM. As to `CCS(=O)(=O)c1ccc(Cl)cc1Nn1cnc2cc(OC)c(OC)cc2c1=O` [Compound A-39, 3-(5-Chloro-2-ethylsulfonylanilino)-6-dimethoxyquinazolin-4-one], under setting [1], the IC50 is 1750 nM. Consider `CCS(=O)(=O)c1ccc(Cl)cc1Nn1cnc2ccc(SC)cc2c1=O` [Compound A-66, 3-(5-Chloro-2-ethylsulfonylanilino)-6-methylsulfanylquinazolin-4-one], for which the IC50 under setting [1] came to 52 nM. On the same count and under the same terms, the same measure for `CCS(=O)(=O)c1ccc(C#N)cc1Cn1cnc2ccc(C(F)(F)F)cc2c1=O` [Compound E-28, 4-Ethylsulfonyl-3-[[4-oxo-6-(trifluoromethyl)quinazolin-3-yl]methyl]benzonitrile]: 630 nM; for `CCSc1ccc(Cl)cc1Nn1cnc2ccc([N+](=O)[O-])cc2c1=O` [Compound A-56, 3-(5-Chloro-2-ethylsulfanylanilino)-6-nitroquinazolin-4-one]: 99 nM; for `C=C(C)c1ccc2ncn(Nc3cc(Cl)ccc3S(=O)(=O)CC)c(=O)c2c1` [Compound A-62, 3-(5-Chloro-2-ethylsulfonylanilino)-6-prop-1-en-2-ylquinazolin-4-one]: 110 nM. For the compound `CCS(=O)(=O)c1ccc(Cl)cc1Nn1cnc2ccc(C(F)(F)F)cc2c1=O` [Compound A-10, 3-(5-Chloro-2-ethylsulfonylanilino)-6-(trifluoromethyl)quinazolin-4-one], the IC50 under setting [1] is 120 nM.

Consider `CCSc1ccc(Cl)cc1Nn1cnc2ccc(SC)cc2c1=O` [Compound A-48, 3-(5-Chloro-2-ethylsulfanylanilino)-6-methylsulfanylquinazolin-4-one], for which, under setting [1], the IC50 is 200 nM. For `N#Cc1ccc(Sc2ccccc2)c(Nn2cnc3ccc(C(F)(F)F)cc3c2=O)c1` [Compound B-15, 3-[[4-Oxo-6-(trifluoromethyl)quinazolin-3-yl]amino]-4-phenylsulfanylbenzonitrile], the half-inhibitory concentration (IC50) under setting [1] came out at 860 nM.

For the compound `CCSc1ccc(Cl)cc1Cn1cnc2ccc(C(F)(F)F)cc2c1=O` [Compound E-15, 3-[(5-Chloro-2-ethylsulfanylphenyl)methyl]-6-(trifluoromethyl)quinazolin-4-one], the IC50 under setting [1] amounted to 450 nM. On the same count and under the same terms, the same measure for `CCOc1ccc(S(=O)(=O)CC)c(Nn2cnc3c(Br)cc(C(F)(F)F)cc3c2=O)c1` [Compound C-32, 8-Bromo-3-(5-ethoxy-2-ethylsulfonylanilino)-6-(trifluoromethyl)quinazolin-4-one]: 1970 nM; for `CCSc1ccc(Cl)cc1Cn1cnc2ccc(OC(F)(F)F)cc2c1=O` [Compound E-3, 3-[(5-Chloro-2-ethylsulfanylphenyl)methyl]-6-(trifluoromethoxy)quinazolin-4-one]: 480 nM.

In general, IC50 refers to the concentration needed to halve the response being measured.
